What was measured:
[1] = Equilibrium dialysis method for determining binding constants; conditions: for Keq / k: binary, SBE-CD 1.0 mM
Source text: In the present invention, the method to determine binding constants utilizes equilibrium dialysis in the development of a multi-use parenteral formulation containing SBE-CD and a preservative. In particular, the method was applied in developing a parenteral formulation comprising the compound of Formula Ia, a cyclodextrin (SBE-CD) and a preservative (meta-cresol). This approach is applicable to compounds other than the compound of Formula Ia in developing parenteral formulations and is within the scope of this invention. […] The significance of this procedure is its ability to measure the binding constant of multiple compounds competing for binding with the cyclodextrin. The experimental dialysis data also provides an easily interpreted representation of binding in the formulation by visualizing the degree of interaction by the equilibrium established following dialysis.
Equilibrium dialysis permits calculation of binding constants by modeling the resultant diffusion rate across a semi-permeable membrane with an equilibrium end point. Equilibrium dialysis is performed by allowing the substrate in a solution containing bound substrate and ligand in a donor compartment of an equilibrium dialysis apparatus (cell) to equilibrate over time with an acceptor compartment. Ono, N., Hirayama, F., Arima, H., Uekama, K. “Determination of Stability Constant of β-Cyclodextrin Complexes Using the Membrane Permeation Technique and the Permeation Behavior of Drug Competing Agent-β-Cyclodextrin Ternary Systems” Eur. J. Pharm. Sci. 1999 9:133-139. The acceptor cell contains no ligand. The membrane is semi-permeable allowing the typically low molecular weight substrates to freely diffuse, while the cyclodextrin (MW=2163) remains in the donor compartment. Sampling from both compartments over time yields a time-concentration profile of substrate in both the donor and acceptor compartments of the dialysis cell.
A mathematical model describing the diffusion rate of drug across the membrane can be derived for systems containing two or more components in solution. The dialysis rate and binding constant for the substrates are obtained by resolving the equation using nonlinear curve fitting software. Depending on the interactions between the components it is possible to describe the competitive binding that occurs in the solution. The equilibrium binding constant is a measure of the relative concentration of meta-cresol bound to SBE-CD according to the chemical equilibrium equation below: S=meta-cresol, L=SBE-CD. S:L indicates the complex formed between meta-cresol and SBE-CD.
The initial experiments established the equilibrium dialysis flux rates for compound of Formula Ia and meta-cresol across the 500 MWCO dialysis membrane. Three different concentrations of compound of Formula Ia were initially loaded into the donor side of the dialysis well. Samples were withdrawn at various time intervals and concentration of free component was measured using HPLC. […] The smoothed line was a fit to the data using the model for a unitary system presented in the discussion. The equilibrium point for all these control experiments was reached after 50% of the total drug was distributed uniformly across the donor and acceptor sides of the well. This asymptotic approach to equilibrium was modeled and the dialysis rates were calculated, Table II.
The primary method of analyzing the data was to perform calculations from equilibrium dialysis data, as described below. In particular, the rate of diffusion across the membrane was calculated using the following equations:
The rate of diffusion from the donor phase is defined by the following relationship: [D]t−[D]eq=([D]0−[D]eq)e^(−2kt) (1)
Rate of diffusion into the Acceptor Phase: [D]eq−[D]t=[D]eqe^(−2kt) (2) wherein
The basis of calculation in the presence of SBE-CD is to assume that complexation occurs only in the donor phase according to the standard complexation reaction:
The value for CyDF may be substituted into equation 8. […]

[2] = Calculated non-sequestered concentrations in formulations
Source text: These constants were used to calculate the concentration of non-sequestered meta-cresol in the formulations tested for anti-microbial efficacy.
The appearance of a plateau at the higher concentrations is only due to the limitation in the bactericidal efficacy measurement method. As the method consists in evaluating the population not killed by the preservative, when the whole population is dead (i.e. none is detectable any more ˜100%) the figure quoted is of the form: a log reduction greater than a value usually between 3 and 5.
The formulations were analyzed for preservative effectiveness.

[3] = tested on: Escherichia coli, Pseudomonas aeruginosa, Staphylococcus aureus, Candida albicans, Aspergillus niger; conditions: as indicated by literature; cited from earlier work
[4] = Stability measurements (accelerated stability)
Experimental: Stability Measurements. Potential lead formulations were evaluated under various accelerated stability conditions in order to assess potency and purity of compound of Formula Ia, preservative content and SBE-CD content. For example, in one accelerated stability study, potential lead formulations were placed in stability ovens to measure short-term thermal stability. […] Purity and potency assays to measure compound of Formula Ia, as well as antimicrobial preservatives and SBE-CD content, were performed using validated HPLC methodology. SBE-CD was assayed using GTP 5984.

[5] = Solubility analysis (solubility method) for binding constant with SBE-CD; conditions: for K11 (equilibrium): meta-cresol saturated solubility in varying SBE-CD; for Slope / y-intercept: meta-cresol solubility vs. SBE-CD concentration
Experimental: Traditional solubility methods were performed initially to determine the solubility and binding constants of compound of Formula Ia and preservative with SBE-CD.
Binding was calculated for meta-cresol using solubility analysis. The experiment was performed at different concentrations of compound of Formula Ia to determine if there was any effect from the presence of drug in solution on the meta-cresol binding constant. Meta-cresol solubility was measured in excess (saturated) meta-cresol and the equilibrium binding constant was calculated using the following equation:
[formula] Where St is the total solubility of meta-cresol, s0 is the inherent solubility of meta-cresol, Lt is the total concentration of SBE-CD (ligand) and K11 is the equilibrium binding constant of meta-cresol assuming a 1 to 1 binding stoichiometry.

[6] = approximate ratio 1:1, Meta-cresol 1.1 mM
[7] = approximate ratio 1:2, Meta-cresol 0.6 mM
[8] = approximate ratio 1:4, Meta-cresol 0.3 mM
[9] = Compound of Formula Ia 00.00 mM
[10] = Compound of Formula Ia 10.67 mM
[11] = Compound of Formula Ia 21.34 mM
[12] = Compound of Formula Ia 42.67 mM

Compound `Cc1cccc(O)c1` [meta-cresol] has a Keq [1, 6] of 88 M⁻¹, a k [1, 6] of 1.984 h⁻¹ and a Keq [1, 7] of 75 M⁻¹. For the same compound, the k [1, 7] was 2.182 h⁻¹, the Keq [1, 8] was 85 M⁻¹ and the k [1, 8] was 2.761 h⁻¹. The “binding constant with SBE-CD” value ([1]; equilibrium dialysis method, binary systems, drug ±352 M−1, n=3, preservative ±7 M−1) was 83 M⁻¹, the “binding of preservative to cyclodextrin in ternary systems” value ([1]; ternary systems of SBE-CD, drug and preservative at the ratios tested, equilibrium profile) was “not bound to cyclodextrin” and the “minimum concentration of non sequestered preservative” value ([2]; for preservative effectiveness in drug/cyclodextrin/preservative formulations) was 2.1 mg/mL. For the same compound, the calculated non-sequestered concentration ([2]; preferred formulation: 10 mgA/mL compound, 63 mg/mL SBE-CD, 3.3 mg/mL meta-cresol, pH 4.4) was 2.8 mg/mL, the “USP and Ph. Eur. criteria A or B requirements” value [3] was “met both the USP and either Ph. Eur. criteria A or B requirements” and the “stability in the formulation (in words)” value [4] was “excellent stability”. The “CONTENT (% INTENT)” value ([4]; 5° C., 1 week, Amber-Treated, 3 mg/mL meta-cresol, 100 mg/mL SBE-CD, 10 mgA/mL compound of Formula Ia) was 102 % INTENT, the “CONTENT (% INTENT)” value ([4]; 5° C., 1 week, Amber-Untreated, 3 mg/mL meta-cresol, 100 mg/mL SBE-CD, 10 mgA/mL compound of Formula Ia) was 102 % INTENT and the “CONTENT (% INTENT)” value ([4]; 5° C., 3 weeks, Amber-Treated, 3 mg/mL meta-cresol, 100 mg/mL SBE-CD, 10 mgA/mL compound of Formula Ia) was 104 % INTENT. For the same compound, the “CONTENT (% INTENT)” value ([4]; 5° C., 3 weeks, Amber-Untreated, 3 mg/mL meta-cresol, 100 mg/mL SBE-CD, 10 mgA/mL compound of Formula Ia) was 103 % INTENT, the “CONTENT (% INTENT)” value ([4]; 5° C., 6 weeks, Amber-Treated, 3 mg/mL meta-cresol, 100 mg/mL SBE-CD, 10 mgA/mL compound of Formula Ia) was 104 % INTENT and the “CONTENT (% INTENT)” value ([4]; 5° C., 6 weeks, Amber-Untreated, 3 mg/mL meta-cresol, 100 mg/mL SBE-CD, 10 mgA/mL compound of Formula Ia) was 102 % INTENT. For the same compound, the “CONTENT (% INTENT)” value ([4]; 5° C., 12 weeks, Amber-Treated, 3 mg/mL meta-cresol, 100 mg/mL SBE-CD, 10 mgA/mL compound of Formula Ia) was 98 % INTENT, the “CONTENT (% INTENT)” value ([4]; 5° C., 12 weeks, Amber-Untreated, 3 mg/mL meta-cresol, 100 mg/mL SBE-CD, 10 mgA/mL compound of Formula Ia) was 98 % INTENT and the “CONTENT (% INTENT)” value ([4]; 50° C., 1 week, Amber-Treated, 3 mg/mL meta-cresol, 100 mg/mL SBE-CD, 10 mgA/mL compound of Formula Ia) was 99 % INTENT. For the same compound, the “CONTENT (% INTENT)” value ([4]; 50° C., 1 week, Amber-Untreated, 3 mg/mL meta-cresol, 100 mg/mL SBE-CD, 10 mgA/mL compound of Formula Ia) was 100 % INTENT, the “CONTENT (% INTENT)” value ([4]; 50° C., 3 weeks, Amber-Treated, 3 mg/mL meta-cresol, 100 mg/mL SBE-CD, 10 mgA/mL compound of Formula Ia) was 103 % INTENT and the “CONTENT (% INTENT)” value ([4]; 50° C., 3 weeks, Amber-Untreated, 3 mg/mL meta-cresol, 100 mg/mL SBE-CD, 10 mgA/mL compound of Formula Ia) was 101 % INTENT. For the same compound, the “CONTENT (% INTENT)” value ([4]; 50° C., 6 weeks, Amber-Treated, 3 mg/mL meta-cresol, 100 mg/mL SBE-CD, 10 mgA/mL compound of Formula Ia) was 104 % INTENT, the “CONTENT (% INTENT)” value ([4]; 50° C., 6 weeks, Amber-Untreated, 3 mg/mL meta-cresol, 100 mg/mL SBE-CD, 10 mgA/mL compound of Formula Ia) was 102 % INTENT and the “CONTENT (% INTENT)” value ([4]; 50° C., 12 weeks, Amber-Treated, 3 mg/mL meta-cresol, 100 mg/mL SBE-CD, 10 mgA/mL compound of Formula Ia) was 100 % INTENT. For the same compound, the “CONTENT (% INTENT)” value ([4]; 70° C., 1 week, Amber-Treated, 3 mg/mL meta-cresol, 100 mg/mL SBE-CD, 10 mgA/mL compound of Formula Ia) was 100 % INTENT, the “CONTENT (% INTENT)” value ([4]; 70° C., 1 week, Amber-Untreated, 3 mg/mL meta-cresol, 100 mg/mL SBE-CD, 10 mgA/mL compound of Formula Ia) was 100 % INTENT and the “CONTENT (% INTENT)” value ([4]; 70° C., 2 weeks, Amber-Treated, 3 mg/mL meta-cresol, 100 mg/mL SBE-CD, 10 mgA/mL compound of Formula Ia) was 103 % INTENT. For the same compound, the “CONTENT (% INTENT)” value ([4]; 70° C., 2 weeks, Amber-Untreated, 3 mg/mL meta-cresol, 100 mg/mL SBE-CD, 10 mgA/mL compound of Formula Ia) was 103 % INTENT, the “CONTENT (% INTENT)” value ([4]; 70° C., 3 weeks, Amber-Treated, 3 mg/mL meta-cresol, 100 mg/mL SBE-CD, 10 mgA/mL compound of Formula Ia) was 100 % INTENT and the “CONTENT (% INTENT)” value ([4]; 70° C., 3 weeks, Amber-Untreated, 3 mg/mL meta-cresol, 100 mg/mL SBE-CD, 10 mgA/mL compound of Formula Ia) was 102 % INTENT. For the same compound, the “CONTENT (% INTENT)” value ([4]; 70° C., 6 weeks, Amber-Treated, 3 mg/mL meta-cresol, 100 mg/mL SBE-CD, 10 mgA/mL compound of Formula Ia) was 101 % INTENT, the “CONTENT (% INTENT)” value ([4]; 70° C., 6 weeks, Amber-Untreated, 3 mg/mL meta-cresol, 100 mg/mL SBE-CD, 10 mgA/mL compound of Formula Ia) was 101 % INTENT and the “CONTENT (% INTENT)” value ([4]; 70° C., 12 weeks, Amber-Treated, 3 mg/mL meta-cresol, 100 mg/mL SBE-CD, 10 mgA/mL compound of Formula Ia) was 100 % INTENT. For the same compound, the “CONTENT (% INTENT)” value ([4]; 70° C., 12 weeks, Amber-Untreated, 3 mg/mL meta-cresol, 100 mg/mL SBE-CD, 10 mgA/mL compound of Formula Ia) was 100 % INTENT, the “CONTENT (% INTENT)” value ([4]; ICH Photostability, 1X ICH UV/FI, Amber-Treated, 3 mg/mL meta-cresol, 100 mg/mL SBE-CD, 10 mgA/mL compound of Formula Ia) was 102 % INTENT and the “CONTENT (% INTENT)” value ([4]; ICH Photostability, 1X ICH UV/FI, Amber-Untreated, 3 mg/mL meta-cresol, 100 mg/mL SBE-CD, 10 mgA/mL compound of Formula Ia) was 102 % INTENT. For the same compound, the “loss / potency decrease” value ([4]; after 12 weeks at 70° C., relative to 1 week at 5° C., 3 mg/mL meta-cresol, 100 mg/mL SBE-CD, 10 mgA/mL compound of Formula Ia) was 2%, the “ACCEPTABLE STABILITY” value ([4]; pH 4.4, 10% SBE-CD, 10 mgA/mL compound of Formula Ia) was “✓” and the “Average Binding Constant” value ([5]; average over Compound of Formula Ia 00.00 to 42.67 mM) was 27.59 M⁻¹. The “K11 (equilibrium)” value [5, 9] was 24.53 M⁻¹, the “K11 (equilibrium)” value [5, 10] was 25.78 M⁻¹ and the “K11 (equilibrium)” value [5, 11] was 35.46 M⁻¹. For the same compound, the “K11 (equilibrium)” value [5, 12] was 24.59 M⁻¹, the Slope [5, 9] was 0.46 and the y-intercept [5, 9] was 34.06 mM. For the same compound, the Slope [5, 10] was 0.46, the y-intercept [5, 10] was 33.15 mM and the Slope [5, 11] was 0.53. The y-intercept [5, 11] was 32.15 mM, the Slope [5, 12] was 0.43 and the y-intercept [5, 12] was 31.15 mM. The “equilibrium binding constant, averaged across the studies” value ([5]; solubility method, SBE-CD) was 27.6 M⁻¹ and the “binding constant with SBE-CD” value ([5]; solubility method, n=1) was 28 M⁻¹.
